The assay has as its target human metabotropic Glutamate 4 receptor (Homo sapiens (Human), UniProt Q14833). In words: Assay A: in vitro testing of mGluR4 potency (cAMP HTRF, glutamate/forskolin stimulated). Format: cell-based. Particulars: HEK293 cells overexpressing human mGluR4, 10 uM L-glutamic acid, 1 uM forskolin. The protocol: A. In Vitro Testing of mGluR4 Potency The in vitro activity of the compounds according to the invention may be investigated as follows:
The HEK293 cell overexpressing the human metabotropic Glutamate 4 receptor are thawed at 37° C. and immediately diluted with cell culture medium. After centrifugation, the cell pellet is re-suspended in medium and then distributed from a stirred spinner flask into the wells of the assay plate. The plates are incubated for one hour at room temperature before they are incubated for 24 hours at 37° C./5% CO2. After washing the cells in the plate three times with 80 uL HBSS/HEPES buffer (10 uL buffer remained in the wells after washing), 5 uL per well of compounds diluted in HBSS/HEPES buffer containing 0.2% BSA (final concentration: 0.1%) and 1 mM IBMX (final concentration: 0.5 mM) are added to the wells of the assay plate. Thereafter 5 uL per well of L-Glutamic acid (final concentration: 10 uM), forskolin (final concentration: 1 uM) and 1 mM IBMX (final concentration: 0.5 mM) dissolved in HBSS/HEPES buffer containing 0.2% BSA (final concentration: 0.1%) are added to the assay plate (final DMSO concentration: 1%). Several wells of the assay plate are used either for the positive and the negative controls or for the cAMP standard curve. The assay plate is incubated for 30 minutes at room temperature. Then 5 ul per well of Anti-cAMP-Antibody-d2 solution and 5 ul per well of cAMP-Europium Cryptate dilution are added to all wells of the plate and the plate is incubated another 60 minutes light protected at room temperature. The emission at 615 nm and 665 nm (Excitation wavelength: 320 nm) are measured on the EnVision™ reader (Perkin Elmer). The ratio between the emission at 665 nm and 615 is calculated by the reader. The whole assay is performed in the dark or under green light.
The cAMP standard is prepared by diluting the cAMP stock solution with HBSS/Hepes buffer: 5 μl/well of the cAMP dilutions (in HBSS/Hepes buffer containing 1 mM IBMX and 0.2% BSA—final concentration: 0.5 mM IBMX and 0.1% BSA) are added to 10 ul/well HBSS/Hepes buffer plus 5 ul/well 4% DMSO in HBSS/Hepes containing 0.2% BSA (final DMSO concentration: 1% —like in the wells containing compounds) in the wells of the assay plate. The final cAMP concentrations in the assay plate are: 0, 0.17, 0.69, 2.78, 11.1, 44.5, 178, and 712 nM (two wells/cAMP concentration).
Each assay microtiter plate contained also wells with vehicle controls instead of compound as controls for L-Glutamic acid induced signal (negative control; 100% CTL; 10 uM L-Glutamic acid+1 uM forskolin+0.5 mM IBMX+1% DMSO) and wells with vehicle controls without L-Glutamic acid as controls for non-specific changes in signal (positive control; 0% CTL; 0 uM L-Glutamic acid+1 uM forskolin+0.5 mM IBMX+1% DMSO).
The analysis of the data is performed by the calculation the ratio between the emission at 665 nm and the emission at 615 nm (Em665/Em615 ratio). Thereafter the signals of the compounds are normalized using the positive and negative controls by the following formula:
PoC=100×((Signal Sample−Positive Control)/(Negative Control−Positive Control))

Setting [1] is: compounds of the present invention.
[2] abbreviates: prior-art compounds of WO2019/138017.

For 17 molecules, IC50 results are on record in patent publication US20240174652A1, “NOVEL DIOXANE DERIVATIVES” (Boehringer Ingelheim International GmbH, priority 2022, published 2024).

Chain of human metabotropic Glutamate 4 receptor (Q14833 33-912): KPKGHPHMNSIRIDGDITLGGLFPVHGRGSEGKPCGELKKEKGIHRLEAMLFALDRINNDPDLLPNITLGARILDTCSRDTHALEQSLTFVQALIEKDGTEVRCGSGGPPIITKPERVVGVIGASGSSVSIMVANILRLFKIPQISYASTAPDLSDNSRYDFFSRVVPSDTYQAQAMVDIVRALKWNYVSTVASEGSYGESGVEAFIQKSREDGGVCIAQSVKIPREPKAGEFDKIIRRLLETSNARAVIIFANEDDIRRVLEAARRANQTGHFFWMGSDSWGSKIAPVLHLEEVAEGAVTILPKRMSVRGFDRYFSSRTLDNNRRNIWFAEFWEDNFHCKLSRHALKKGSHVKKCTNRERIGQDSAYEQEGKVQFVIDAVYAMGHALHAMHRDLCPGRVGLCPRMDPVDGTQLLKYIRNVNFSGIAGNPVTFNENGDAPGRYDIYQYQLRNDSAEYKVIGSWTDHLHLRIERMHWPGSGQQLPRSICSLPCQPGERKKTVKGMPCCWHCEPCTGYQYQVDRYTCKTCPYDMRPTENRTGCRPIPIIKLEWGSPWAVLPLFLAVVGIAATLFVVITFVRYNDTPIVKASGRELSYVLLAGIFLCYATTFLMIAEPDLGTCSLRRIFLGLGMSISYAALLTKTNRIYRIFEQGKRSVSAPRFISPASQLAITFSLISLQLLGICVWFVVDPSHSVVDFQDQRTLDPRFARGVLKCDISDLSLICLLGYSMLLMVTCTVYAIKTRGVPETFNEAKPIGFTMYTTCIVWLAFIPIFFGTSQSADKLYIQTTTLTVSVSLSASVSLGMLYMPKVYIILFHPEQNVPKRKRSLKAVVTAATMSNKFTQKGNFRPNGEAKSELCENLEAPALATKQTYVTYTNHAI

For orientation: IC50 means the midpoint of a concentration-inhibition curve. Higher therefore signals lower potency. Under setting [1], `Cc1cnc(C(=O)NC(c2nc3cc(C(F)(F)F)ccc3n2C)C2COCCO2)cn1` (single isomer, unassigned) [Example 1-1, N-[(1,4-dioxan-2-yl)[1-methyl-5-(trifluoromethyl)-1H-1,3-benzodiazol-2-yl]methyl]-5-methylpyrazine-2-carboxamide] gave an IC50 of 67 nM.

Regarding `Cc1cnc(C(=O)NC(c2nc3cc(Cl)ccc3n2CC(F)F)C2COCCO2)cn1` (single isomer, unassigned) [Example 4, N-{[5-chloro-1-(2,2-difluoroethyl)-1H-1,3-benzodiazol-2-yl](1,4-dioxan-2-yl)methyl}-5-methylpyrazine-2-carboxamide], it took 7 nM to reach half-maximal inhibition under setting [1] (IC50).

For the molecule `Cc1cnc(C(=O)NC(c2nc3cc(Cl)ccc3n2CC(F)F)C2COCCO2)cn1` (single isomer, unassigned) [Example 5], the IC50 under setting [1] was 62 nM.

`Cc1cnc(C(=O)NC(c2nc3ccc(C(F)(F)F)cc3n2CC(F)F)C2COCCO2)cn1` (single isomer, unassigned) [Example 6]: under setting [1], the IC50 worked out at 6 nM.

Consider `Cc1cnc(C(=O)NC(c2nc3ccc(C(F)(F)F)cc3n2C)C2COCCO2)cn1` (single isomer, unassigned) [Example 7, N-[(1,4-dioxan-2-yl)[1-methyl-6-(trifluoromethyl)-1H-1,3-benzodiazol-2-yl]methyl]-5-methylpyrazine-2-carboxamide], for which, under setting [1], it took 70 nM to reach half-maximal inhibition (IC50).

As for `Cc1cnc(C(=O)NC(c2nc3cc(F)c(F)cc3n2CC(F)F)C2COCCO2)cn1` (single isomer, unassigned) [Example 9, N-{[1-(2,2-difluoroethyl)-5,6-difluoro-1H-1,3-benzodiazol-2-yl](1,4-dioxan-2-yl)methyl}-5-methylpyrazine-2-carboxamide], under setting [1], the IC50 turned out to be 11 nM.

Take `CCn1c(C(NC(=O)c2cnc(C)cn2)C2COCCO2)nc2cc(F)ccc21` (single isomer, unassigned) [Example 10, N-[(1,4-dioxan-2-yl)(1-ethyl-5-fluoro-1H-1,3-benzodiazol-2-yl)methyl]-5-methylpyrazine-2-carboxamide]: the IC50 under setting [1] is 20 nM.

As to `CCn1c(C(NC(=O)c2cnc(C)cn2)C2COCCO2)nc2cc(F)c(F)cc21` (single isomer, unassigned) [Example 11], the IC50 under setting [1] was 15 nM.

As to `Cc1cnc(C(=O)N[C@H](c2nc3cc(C(F)(F)F)ccc3n2C)[C@H]2COCCO2)cn1` [Example 1, N-[(R)-[(2S)-1,4-dioxan-2-yl][1-methyl-5-(trifluoromethyl)-1H-1,3-benzodiazol-2-yl]methyl]-5-methylpyrazine-2-carboxamide], under setting [1], the IC50 was found to be 20 nM.

In turn, `Cc1cnc(C(=O)N[C@H](c2nc3cc(F)ccc3n2CC(F)F)[C@H]2COCCO2)cn1` [Example 2, N-[(R)-[1-(2,2-difluoroethyl)-5-fluoro-1H-1,3-benzodiazol-2-yl][(2S)-1,4-dioxan-2-yl]methyl]-5-methylpyrazine-2-carboxamide] returned an IC50 under setting [1] of 14 nM.

For `CCn1c([C@@H](NC(=O)c2cnc(C)cn2)[C@H]2COCCO2)nc2cc(C(F)(F)F)ccc21` [Example 3, N-[(R)-[(2S)-1,4-dioxan-2-yl][1-ethyl-5-(trifluoromethyl)-1H-1,3-benzodiazol-2-yl]methyl]-5-methylpyrazine-2-carboxamide], half-maximal inhibition under setting [1] (IC50) required 5 nM.

As to `Cc1nocc1C(=O)N[C@H](c1nc2cccc(F)c2[nH]1)[C@H]1CC[C@H](C)CC1` [Example 8 in WO2019/ 138017, reference compound], the midpoint of inhibition under setting [2], the IC50, lay at 9850 nM.

Under setting [1], `Cc1cnc(C(=O)N[C@H](c2nc3ccc(F)cc3n2CC(F)F)[C@H]2COCCO2)cn1` [Example 8, N-[(R)-[1-(2,2-difluoroethyl)-6-fluoro-1H-1,3-benzodiazol-2-yl][(2S)-1,4-dioxan-2-yl]methyl]-5-methylpyrazine-2-carboxamide] registered a 50% inhibitory concentration (IC50) of 31 nM.

With `COc1ccc2[nH]c(C(NC(=O)c3conc3C)C3CCCCCCC3)nc2c1F` (centres unmarked) [Example 12 in WO2019/ 138017, reference compound], under setting [2], the IC50 is over 10000 nM.

Under setting [2], `CCn1nccc1C(=O)N[C@H](c1nc2ccc(C#N)c(F)c2[nH]1)[C@H]1CC[C@H](C)CC1` [Example 125 in WO2019/ 138017, reference compound] had an IC50 of 5600 nM.

`Cn1nccc1C(=O)N[C@H](c1nc2c(F)c(Br)ccc2n1C)[C@H]1CC[C@@H](C)CC1` [Intermediate 250 in WO2019/ 138017 (regioisomere 1), reference compound]: the IC50 under setting [2] is 6300 nM.

Under setting [2], `Cn1nccc1C(=O)N[C@H](c1nc2c(F)c(Br)ccc2n1C)[C@H]1CC[C@H](C)CC1` [Intermediate 250 in WO2019/ 138017 (regioisomere 2), reference compound] had an IC50 of 4000 nM.
